Measurements from paper PMC8968063, “Key features of inhibitor binding to the human mitochondrial pyruvate carrier hetero-dimer” (Molecular Metabolism, 2022).

Assays:
mammalian MPCs = details: isolated mitochondria; cited from earlier work
[1] = target: T1, human MPC1L/MPC2 hetero-dimer (Homo sapiens, UniProt O95563+P0DKB6); test: Inhibition of [14C]-pyruvate homo-exchange in MPC1L/MPC2 proteoliposomes; format: biochemical; details: for IC50 / Inhibition of pyruvate transport, residual activity compared to control: MPC1L/MPC2 proteoliposomes; for IC50: 50 μM [14C]-pyruvate homo-exchange, mean ± s.d., read-out: IC50 of pyruvate transport inhibition; for Inhibitory potency for human MPC1L/MPC2 compared to yeast Mpc1/Mpc3: human vs yeast protein, yeast values ref 15; for Inhibition of pyruvate transport, residual activity compared to control: compound 100 μM
T1 construct: eight-histidine tag (C, cleaved yes); TEV protease cleavage site (part stays on MPC2 after digestion) (C, cleaved yes); made in house; host or cells: Saccharomyces cerevisiae SHY15 (mpc triple deletion strain), purified from mitochondria
T1 sequence (P0DKB6 2-136): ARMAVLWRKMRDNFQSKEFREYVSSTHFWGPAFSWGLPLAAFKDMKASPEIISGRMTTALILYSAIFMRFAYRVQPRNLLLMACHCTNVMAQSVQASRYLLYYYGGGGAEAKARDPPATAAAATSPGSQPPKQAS
T1 sequence (O95563 2-127): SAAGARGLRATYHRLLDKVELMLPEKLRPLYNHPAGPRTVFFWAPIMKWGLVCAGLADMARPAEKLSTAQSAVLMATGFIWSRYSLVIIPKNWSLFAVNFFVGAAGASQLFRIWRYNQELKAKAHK
Experimental: Egg L-α-phosphatidylcholine 99% (w/v) (Avanti Polar Lipids, AL, USA) and TOCL were mixed in a 20:1 (w/w) ratio, dried under a stream of nitrogen and washed once with methanol before being dried again. Lipids were hydrated in 20 mM Tris–HCl, pH 8.0, 50 mM NaCl to a concentration of 12 mg/mL. Unlabeled pyruvate was added as a freshly made concentrated stock at a final concentration of 5 mM for internalisation. Lipids were solubilised with 1.2% (v/v) pentaethylene glycol monodecyl ether (Sigma) and freshly purified protein was added at a lipid-to-protein ratio of 250:1 (w/w). Samples were incubated on ice for 5 min, then liposomes were formed by the step-wise removal of pentaethylene glycol monodecyl ether by five additions at 20 min intervals of 60 mg Bio-Beads SM-2 (Bio-Rad, Watford, UK) with gentle mixing at 4 °C. A final addition of 480 mg Bio-Beads was incubated with the samples overnight. Proteoliposomes were first separated from the Bio-Beads by passage through empty spin columns (Bio-Rad, Watford, UK) and subsequently pelleted at 120,000×g for 60 min. The proteoliposomes were resuspended with a thin needle in 150 μL of their supernatant after the rest of the supernatant was removed.
The time course of pyruvate homo-exchange was measured at room temperature. The transport was initiated by diluting proteoliposomes 200-fold into external buffer, 20 mM MES, pH 6.4, 50 mM NaCl, containing 50 μM [^14C]-pyruvate (500,000 dpm, Perkin Elmer, MA, USA). The reaction (0–30 s) was terminated by rapid dilution into 8 volumes of ice-cold internal buffer (20 mM Tris–HCl, pH 8.0, 50 mM NaCl), followed by rapid filtration through cellulose nitrate 0.45 μm filters (Millipore, Gillingham, UK) and washing with an additional 8 volumes of buffer. The filters were dissolved in Ultima Gold scintillation liquid (Perkin Elmer, MA, USA) and the radioactivity was counted with a Perkin Elmer Tri-Carb 2800 RT liquid scintillation counter. […] The data analysis was performed with non-linear regression fittings using GraphPad Prism 7.0d ([Inhibitor] vs response, variable slope). The specific uptake rates were calculated based on the amount of protein used in reconstitutions, as estimated from bicinchoninic acid assay. The biological repeats represent independent proteoliposome preparations using protein from independent purifications.

human MPC1L/MPC2 complex [2] = target: T2, human MPC1L/MPC2 complex (Homo sapiens, UniProt O95563+P0DKB6); test: CPM thermostability shift assay, purified MPC1L/MPC2; format: binding; details: for ΔTm at 100 µM: read-out: ∆Tm, CPM assay (thermal shift compared to no-ligand control); for Tm, CPM assay: unliganded 51.3 ± 0.2, mean ± s.d., 3 biological repeats
T2 construct: eight-histidine tag (C, cleaved yes); TEV protease cleavage site (part stays on MPC2 after digestion) (C, cleaved yes); made in house; host or cells: Saccharomyces cerevisiae SHY15 (mpc triple deletion strain), purified from mitochondria
T2 sequence (P0DKB6 2-136): T1 sequence (P0DKB6 2-136)
T2 sequence (O95563 2-127): T1 sequence (O95563 2-127)
Experimental: (§1) The assessment of ligand binding was performed via shifts in protein thermostability upon binding using thermal denaturation on a rotary quantitative PCR (qPCR) instrument (Qiagen Rotor-Gene Q 2plex HRM, Venlo, Netherlands), as previously described. In this method, cysteine residues, buried within the protein structure, become solvent-exposed during denaturation in a temperature ramp and then react with 7-diethylamino-3-(4-maleimidophenyl)-4-methylcoumarin (CPM) to form fluorescent-adducts. Briefly, a CPM working solution was prepared by diluting the CPM stock (5 mg/mL in dimethyl sulfoxide) 50-fold into assay buffer (20 mM Tris–HCl, pH 7.4, 150 mM NaCl, 0.1% (w/v) LMNG, 0.1 mg/mL TOCL) and incubated for 10 min at room temperature. In each analysis, performed in duplicates or triplicates, 3 μg of purified MPC was diluted into 45 μL of assay buffer containing the desired concentration of the inhibitor then incubated for 10 min on ice. Next, 5 μL of the CPM working solution were added. Samples were incubated on ice for an additional 10 min then subjected to a temperature ramp of 5.6 °C/min. The fluorescence increase was monitored with the HRM channel of the instrument (excitation at 440–480 nm, emission at 505–515 nm). Unfolding profiles were analysed with the Rotor-Gene Q software 2.3, and the peaks of their derivatives were used to determine the apparent melting temperature.

human MPC1L/MPC2 complex [3] = target: T2, human MPC1L/MPC2 complex; test: nano-DSF thermostability shift assay, purified MPC1L/MPC2; format: binding; details: inhibitor 100 μM; for Tm, nano-DSF: unliganded 51.9 ± 0.1, mean ± s.d., 2 biological repeats
Experimental: Ligand binding was also assessed using dye-free nano differential scanning fluorimetry (nano-DSF) to monitor fluorescence changes due to altered environments of tryptophan and tyrosine residues during unfolding. Protein samples in buffer containing 20 mM Tris–HCl pH 7.4, 150 mM NaCl, 0.1% (w/v) LMNG, 0.1 mg/mL TOCL, in the presence or absence of the indicated concentrations of small molecule inhibitors, were loaded into capillary tubes, and a temperature ramp of 5 °C/min was applied. The intrinsic fluorescence was measured using the NanoTemper Prometheus NT.48 (NanoTemper, München, Germany).

MPC1/MPC2 hetero-dimer = target: T3, MPC1/MPC2 hetero-dimer (Homo sapiens, UniProt O95563+Q9Y5U8); test: CPM thermostability shift assay, MPC1/MPC2; format: binding; details: 100 μM inhibitor
T3 construct: eight-histidine tag (C, cleaved yes); Factor Xa cleavage site (C, cleaved yes); made in house; host or cells: Saccharomyces cerevisiae SHY15 (mpc triple deletion strain), purified from mitochondria
T3 sequence (Q9Y5U8 2-109 limits assumed): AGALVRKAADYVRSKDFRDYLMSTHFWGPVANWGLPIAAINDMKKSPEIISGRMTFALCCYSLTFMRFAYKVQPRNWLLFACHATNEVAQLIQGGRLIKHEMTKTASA
T3 sequence (O95563 2-127 limits assumed): T1 sequence (O95563 2-127)
Experimental: as §1

[4] = target: T4, recombinant human MPC1L/MPC2 (Homo sapiens, UniProt O95563+P0DKB6); test: Electrospray mass spectrometry of MPC1L/MPC2 after reaction with inhibitors or sulfhydryl modifiers; details: for Mass difference (observed vs calculated), MPC1L (2–136) / Mass difference (observed vs calculated), MPC1L (5–136) / Mass difference (observed vs calculated), MPC2 (2–137): MPC1L/MPC2 after reaction with compound; for Covalent modification of MPC protomers (molecular mass change): folded MPC1L/MPC2 incubated with compound, ESI-MS
T4 construct: MPC1L (2–136); MPC2 (2–137); eight-histidine tag (C, cleaved yes); TEV protease cleavage site (part stays on MPC2 after digestion) (C, cleaved yes); made in house; host or cells: Saccharomyces cerevisiae SHY15 (mpc triple deletion strain), purified from mitochondria
T4 sequence (P0DKB6 2-136 limits assumed): T1 sequence (P0DKB6 2-136)
T4 sequence (O95563 2-127 limits assumed): T1 sequence (O95563 2-127)
Experimental: Different MPC inhibitors (Table1) or sulfhydryl reagents were first incubated with MPC1L/MPC2 in a folded state, then the protein molecular masses were measured by electrospray mass spectrometry. The MPC subunits (10 μg) were resolved by reverse-phase HPLC on a PLRP-S column (1.0 mm i.d. X 75 mm; VARIAN) using a gradient of 2-propanol in a solvent system compatible with the recovery of membrane proteins (Carroll et al., 2009). The eluate (50 μL/min) was introduced into a QTRAP4000 (SCIEX) mass spectrometer operating in positive ion single MS mode. The instrument was scanned from 700 m/z to 2300 m/z after calibration with ions from a mixture of 1.0 μM of myoglobin and 1.5 μM trypsinogen. Molecular masses were obtained by reconstruction of the spectra of multiply charged ions using PeakView (SCIEX).

MPC2 protomer = target: T5, MPC2 protomer (Homo sapiens, UniProt O95563); test: CPM thermostability shift assay, individually purified MPC2; format: binding; details: 100 μM inhibitor
T5 construct: Factor Xa or TEV cleavage site followed by eight-histidine tag (C); made in house
T5 sequence (O95563 1-127): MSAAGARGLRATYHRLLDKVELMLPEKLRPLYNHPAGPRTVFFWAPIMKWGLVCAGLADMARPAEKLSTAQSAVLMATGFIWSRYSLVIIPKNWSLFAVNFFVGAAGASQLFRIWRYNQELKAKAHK
Experimental: as §1

| IC50 [1] [nM] | Inhibitory potency for human MPC1L/MPC2 compared to yeast Mpc1/Mpc3 [1] | Thermal shift in the CPM assay (human MPC1L/MPC2 complex [2]; compound 1 mM) | ∆Tm, CPM assay (thermal shift compared to no-ligand control) (human MPC1L/MPC2 complex [2]; inhibitor 100 μM) | ΔTm at 100 µM (human MPC1L/MPC2 complex [2]; inhibitor 100 μM) [°C] | Tm, CPM assay (human MPC1L/MPC2 complex [2]; inhibitor 100 μM) [°C] | ∆Tm, nano-DSF (human MPC1L/MPC2 complex [3]) [°C] | ∆Tm, nano-DSF (human MPC1L/MPC2 complex [3]; listed as lonidamine) | Tm, nano-DSF (human MPC1L/MPC2 complex [3]) [°C] | Inhibition of pyruvate transport, residual activity compared to control [1] | Mass difference (observed vs calculated), MPC1L (2–136) [4] [Da] | Mass difference (observed vs calculated), MPC1L (5–136) [4] [Da] | Mass difference (observed vs calculated), MPC2 (2–137) [4] [Da] | Covalent modification of MPC protomers (molecular mass change) [4] | SMILES | Ki (mammalian MPCs) [nM] | Thermostability shift of MPC1/MPC2 (MPC1/MPC2 hetero-dimer) | Thermostability shift of MPC2 alone (MPC2 protomer) |
| --- | --- | --- | --- | --- | --- | --- | --- | --- | --- | --- | --- | --- | --- | --- | --- | --- | --- |
| 4600 ± 1300 | much higher potencies | negative thermal shift | No thermal shifts | -0.2 ± 0.5 | 51.1 ± 0.3 | 0.6 ± 0.3 | No thermal shifts | 52.5 ± 0.2 | – | – | – | – | – | O=C(O)c1nn(Cc2ccc(Cl)cc2Cl)c2ccccc12 [Lonidamine, lonidamine] | 2500 | – | – |
| 321 ± 42 | much higher potencies | – | – | 7.5 ± 0.6 | 58.8 ± 0.4 | 6.3 ± 0.4 | – | 58.2 ± 0.3 | completely inhibited | 0.4 | 0.3 | 1.5 | no molecular mass differences | CCCOc1ccccc1-c1nc2nn[nH]c2c(=O)[nH]1 [Zaprinast] | – | strong shifts | neither CHC nor zaprinast showed any shift |
| – | – | – | – | 11.2 ± 1.1 | 62.5 ± 0.9 | 9.2 ± 0.7 | – | 61.1 ± 0.6 | completely inhibited | 0.6 | 0.6 | 1.7 | no molecular mass differences | N#CC(=Cc1cn(-c2ccccc2)c2ccccc12)C(=O)O [UK5099, α-cyano-β-(1-phenylindol-3-yl)-acrylate] | ~50 | – | – |

| SMILES | IC50 [1] [nM] | Inhibitory potency for human MPC1L/MPC2 compared to yeast Mpc1/Mpc3 [1] | Thermal shift in the CPM assay (human MPC1L/MPC2 complex [2]; compound 1 mM) | ∆Tm, CPM assay (thermal shift compared to no-ligand control) (human MPC1L/MPC2 complex [2]; inhibitor 100 μM) | ΔTm at 100 µM (human MPC1L/MPC2 complex [2]; inhibitor 100 μM) [°C] | Tm, CPM assay (human MPC1L/MPC2 complex [2]; inhibitor 100 μM) [°C] | ∆Tm, nano-DSF (human MPC1L/MPC2 complex [3]) [°C] | ∆Tm, nano-DSF (human MPC1L/MPC2 complex [3]; listed as lonidamine) | Tm, nano-DSF (human MPC1L/MPC2 complex [3]) [°C] | Inhibition of pyruvate transport, residual activity compared to control [1] | Mass difference (observed vs calculated), MPC1L (2–136) [4] [Da] | Mass difference (observed vs calculated), MPC1L (5–136) [4] [Da] | Mass difference (observed vs calculated), MPC2 (2–137) [4] [Da] | Covalent modification of MPC protomers (molecular mass change) [4] | Ki (mammalian MPCs) [nM] | Thermostability shift of MPC1/MPC2 (MPC1/MPC2 hetero-dimer) | Thermostability shift of MPC2 alone (MPC2 protomer) |
| --- | --- | --- | --- | --- | --- | --- | --- | --- | --- | --- | --- | --- | --- | --- | --- | --- | --- |
| N#CC(=Cc1ccc(O)cc1)C(=O)O [CHC, α-cyano-4-hydroxy-cinnamate] | – | – | – | – | 8.3 ± 0.6 | 59.6 ± 0.4 | 7.0 ± 0.5 | – | 58.9 ± 0.4 | completely inhibited | – | – | – | – | – | strong shifts | neither CHC nor zaprinast showed any shift |
